Laboratory results reported in US8686178B2, “Derivative of 18β-glycyrrhetinic acid apt to suppress cancer cells” (Kaohsiung Medical University, priority 2011, dated 2014).

Experiments:
NTUB1 cells [1] = experiment: Trial (D): production of reactive oxygen species by flow cytometry (DCF); type: cell-based, human; conditions: 24 hours
Protocol: In trial (D), production of reactive oxygen species (ROS) is analyzed by flow cytometry, since the levels of ROS play an important role in apoptosis.
Referring to TABLE 4, the NTUB1 cells at a density of 8×10^5 cells/ml are prepared and assigned into 5 groups, including D1 to D5, to incubate in various medium for 24 hours. Next, 10 μM of 2,7-dichlorodihydrofluorescein diacetate (H2DCFHDA; Molecular Probes, Eugene, Oreg.) is added to the NTUB1 cells of each group 30 minutes prior than harvest, followed by collecting the NTUB1 cells of each group respectively and washing with PBS buffer. With such arrangement, the 2,7-dichlorodihydrofluorescein diacetate will penetrate into cells, interact with esterase, and degrade to 2,7-dichlorofluorescein (DCF) having green fluorescein, which can be determined by flow cytometer. In trial (D), green fluorescence of intracellular DCF in each group are analyzed immediately by FACScan flow cytometer (Becton Dickinson) at a wavelength of 525 nm.

NTUB1 cells [2] = experiment: Trial (E): cell cycle progression by flow cytometry (propidium iodide); type: cell-based, human; parameters: Sub-G1 / G1: unit not given here; conditions: 24 hours, NTUB1
Protocol: In order to determine a relationship between the derivatives of 18β-glycyrrhetinic acid of the present invention and cell cycle arrest, trial (E) is carried out by analyzing cell cycle progression by flow cytometry. […] After that, cell cycle progression of each group is determined respectively by incubating with 50 μg/mL propidium iodide (Sigma, Co) and 50 μg/mL RNase A (Sigma, Co) in PBS at room temperature for 30 min, and analyzing by FACScan flow cytometer and Cell Quest sofeware.

p-p53 (Ser15) = experiment: Trial (G): expression of p53 / p-p53 by Western blot; type: cell-based, human; conditions: NAC with 50 μM 25, 24 hours, NTUB1
Protocol: In trial (G), expression of p53 is monitored via Western blot analysis in accordance with a journal article published by Son et al., at 2010 in Toxicol. Appl. Pharmacol., in which overproduction ROS induced p53 suppression is observed.
Referring to TABLE 7, the NTUB1 cells at a density of 8×10^5 cells/ml are prepared and assigned into 9 groups, including G1-1 to G1-5 and G2-1 to G2-4, to incubate in various medium for 24 hours, followed by harvesting in trypsinization, resuspending in PBS till at a suitable density and collecting the NTUB1 cells of each group respectively.
Next, the NTUB1 cells of each group are further diluted with equal volume of 2× sample buffer, boiled for 10 minutes twice to denature protein therein, and analyzed by SDS-PAGE. After that, proteins on SDS-PAGE datum are transferred to nitrocellulose membranes (Millipore, Billerica, Mass., USA) using a semi-dry blotter, followed by blocking with 5% (w/v) skimmed milk in TBST buffer (100 mM Tris-HCl (pH 7.5), 150 mM NaCl and 0.1% Tween-20), incubating with specific antibodies [including antibodies specific for b-acctin (NB600-501), p-p53 (Ser15) (9284) and p53 (DO1)]. at 4° C. overnight, washing with TBST buffer again and incubated with secondary antibody at room temperature. Finally, western data of each group are visualized on Fuji SuperRX film. […]

[3] = test system: human bladder cancer cell line NTUB1; experiment: Trial (A): cytotoxic effect, IC50 by median-effect analysis; type: cell-based; conditions: NTUB1 cells; for IC50: mean ± SD; for cytotoxic effect against cancer cell: with reference to TABLE 2
Excerpt: (§1) For the sake of proving therapeutic effects of the derivatives of 18β-glycyrrhetinic acid of the present invention, including 10, 11, 13-17 and 21-25, in treating of cancer, human bladder cancer cell line NTUB1, human prostate cancer cell line PC3 cataloged as CRL-1435 (reference to J. Formosan Med. Assoc. 1992; 91:608-13), and immortalized normal human urothelial cells SV-HUC1 cataloged as CRL-9520 are purchased from American Type Culture Collection (ATCC; Rockville, USA) and maintained in a culturing medium respectively till at a preferable density to carry out a serial of trials (comprising trial A to G) for evaluating cytotoxicities of the derivatives of 18β-glycyrrhetinic acid against cancer cells, and mechanisms thereof.
In the present invention, the NTUB1 and the PC3 is but not limit to be maintained in RPMI 1640 medium supplemented 10% fetal bovine serum (FBS), 100 unit/mL penicillin-G, 100 μg/mL streptomycin, and 2 mM L-glutamine, yet the SV-HUC1 is maintained in F12 medium supplemented with 10% fetal bovine serum (FBS), 100 unit/mL penicillin-G, 100 μg/mL streptomycin, and 2 mM L-glutamine, culturing at 37° C. in a humidified atmosphere containing 5% CO2 till at a density of 70% per well, followed by repeatedly suspending cells in each well with an ethylene diamine tetra-acetic acid buffer (EDTA buffer; Merck) and counting cell numbers.
In the present invention, the IC50 values of each group are presented as mean±standard deviation (SD).

NTUB1 = experiment: Trial (B): MTT cytotoxicity assay, 72 hours; type: cell-based, human; conditions: 0-50 μM
Excerpt: as §1, with “thereof. […]” for “thereof.”
(§2) In trial (B), the cell lines of NTUB1, PC3, and SV-HUC1 are prepared in 96-well plates and co-incubated with the compounds 21, 23 or 25 in various concentrations of 0, 0.3, 1, 3, 5, 10, 30 and 50 μM, to analyze cytotoxic effects against either cancer cell or normal cells via a modified 3-[4,5-dimethylthiazol-2-yl]-2,5-diphenyltetrazolium bromide (MTT, Sigma Chemical Co.) assay. […] At co-incubation, 50 μL of MTT (2 mg/mL in PB) is added to each well to react for 3 hours, followed by centrifugating the 96-well plates at 1000 g for 10 min to remove supernatant, adding 150 μL DMSO in each well of the 96-well plates, and determining viability rates of the NTUB1, PC3, and SV-HUC1 cells separately by an absorbance spectrometry at 540 nm with a MRX (DYNEXCO) microplate reader.

[4] = test system: human prostate cancer cell line PC3; experiment: Trial (B): MTT cytotoxicity assay, 72 hours; type: cell-based; conditions: 0-50 μM
Excerpt: as §1, with “thereof. […]” for “thereof.”
as §2

[5] = test system: immortalized normal human urothelial cells SV-HUC1; experiment: Trial (B): MTT assay on normal cells, 72 hours; type: cell-based; conditions: 0-50 μM
Excerpt: as §1, with “thereof. […]” for “thereof.”
as §2

SMILES	IC50 [3]	cytotoxic effect against cancer cell [3]	cytotoxic effect (survival ratio, FIGS. 4-6) (NTUB1)	cytotoxic effect (survival ratio, FIGS. 4-6) [4]	effect on growth of normal cells (survival ratio, FIGS. 4-6) [5]	also measured
CC(=O)N[C@@H](CS)C(=O)O [NAC, reference compound]	–	–	–	–	–	ROS (%) (NTUB1 cells [1]; 1 mM): 26.1%; G1 (NTUB1 cells [2]; 1 mM): 44.41; S (NTUB1 cells [2]; 1 mM): 29.18; Sub-G1 (NTUB1 cells [2]; 1 mM): 2.66; G2/M (NTUB1 cells [2]): 20.18; effect on p53 phosphorylation stimulated by 25 (Western blot, FIG. 10) (p-p53 (Ser15)): prevents p53 phosphorylation that stimulated by 25
N.N.[Cl][Pt][Cl] [cisplatin, cis-diamminedichloroplatinum II, reference compound]	3.27 ± 0.1 µM	–	–	–	–	ROS (%) (NTUB1 cells [1]; 20 μM): 63.1%; G1 (NTUB1 cells [2]; 20 μM): 60.91; G2/M (NTUB1 cells [2]; 20 μM): 6.65; S (NTUB1 cells [2]; 20 μM): 22.09; Sub-G1 (NTUB1 cells [2]; 20 μM): 10.35
C=C(C)[C@@H]1CC[C@]2(C)[C@H](C(=O)C=C3[C@@H]4C[C@@](C)(C(=O)NC(C)C)CC[C@]4(C)CC[C@]32C)[C@@]1(C)CCC(=O)OCC [Compound 21, 30-isopropyl carbamoyl-11-oxo-18β-3,4-seco-olean-4(23),12-dien 3-ethyl ester]	19.4 ± 19.2 µM	significantly suppress the growth of cancer cells with a lower concentrate	cytotoxic effects against to the cancer cells in a dose-dependent manner, particularly in against to NTUB1 cell	cytotoxic effects against to the cancer cells in a dose-dependent manner	enhance the growth of SV-HUC1 cells	–
C=C(C)[C@@H]1CC[C@]2(C)[C@H](C(=O)C=C3[C@@H]4C[C@@](C)(C(=O)NC(C)C)CC[C@]4(C)CC[C@]32C)[C@@]1(C)CCC(=O)NCC [Compound 23]	12.8 ± 2.1 µM	significantly suppress the growth of cancer cells with a lower concentrate	cytotoxic effects against to the cancer cells in a dose-dependent manner, particularly in against to NTUB1 cell	cytotoxic effects against to the cancer cells in a dose-dependent manner	enhance the growth of SV-HUC1 cells	–
